Each molecule was assayed against Histone deacetylase. Conditions: hela.
Assay type: cell-based, Homo sapiens

| IC50 [nM] | SMILES |
| --- | --- |
| 260 | CCCN(Cc1ccc(C(=O)NO)cc1)C(=O)c1cc2c([nH]c3ccccc32)c(-c2ccc(OC)cc2)n1 |
| 92 | COc1ccc(-c2nc(C(=O)N(CCN(C)C)Cc3ccc(C(=O)NO)cc3)cc3c2[nH]c2ccccc23)cc1 |

| SMILES | IC50 [nM] |
| --- | --- |
| COc1ccc2c(c1)[nH]c1c(C)nccc12 [HARMINE] | > 10000 |

The molecules below were run against T1, Protein deacetylase HDAC6 (Mus musculus, UniProt Q9Z2V5) (assay: Inhibition of recombinant mouse HDAC6 expressed in HEK293T cells using Ac-KGLGK(Ac)-MCA as substrate measured after 30 mins by fluorescence assay). Conditions: not given.
T1 sequence (Q9Z2V5 whole entry): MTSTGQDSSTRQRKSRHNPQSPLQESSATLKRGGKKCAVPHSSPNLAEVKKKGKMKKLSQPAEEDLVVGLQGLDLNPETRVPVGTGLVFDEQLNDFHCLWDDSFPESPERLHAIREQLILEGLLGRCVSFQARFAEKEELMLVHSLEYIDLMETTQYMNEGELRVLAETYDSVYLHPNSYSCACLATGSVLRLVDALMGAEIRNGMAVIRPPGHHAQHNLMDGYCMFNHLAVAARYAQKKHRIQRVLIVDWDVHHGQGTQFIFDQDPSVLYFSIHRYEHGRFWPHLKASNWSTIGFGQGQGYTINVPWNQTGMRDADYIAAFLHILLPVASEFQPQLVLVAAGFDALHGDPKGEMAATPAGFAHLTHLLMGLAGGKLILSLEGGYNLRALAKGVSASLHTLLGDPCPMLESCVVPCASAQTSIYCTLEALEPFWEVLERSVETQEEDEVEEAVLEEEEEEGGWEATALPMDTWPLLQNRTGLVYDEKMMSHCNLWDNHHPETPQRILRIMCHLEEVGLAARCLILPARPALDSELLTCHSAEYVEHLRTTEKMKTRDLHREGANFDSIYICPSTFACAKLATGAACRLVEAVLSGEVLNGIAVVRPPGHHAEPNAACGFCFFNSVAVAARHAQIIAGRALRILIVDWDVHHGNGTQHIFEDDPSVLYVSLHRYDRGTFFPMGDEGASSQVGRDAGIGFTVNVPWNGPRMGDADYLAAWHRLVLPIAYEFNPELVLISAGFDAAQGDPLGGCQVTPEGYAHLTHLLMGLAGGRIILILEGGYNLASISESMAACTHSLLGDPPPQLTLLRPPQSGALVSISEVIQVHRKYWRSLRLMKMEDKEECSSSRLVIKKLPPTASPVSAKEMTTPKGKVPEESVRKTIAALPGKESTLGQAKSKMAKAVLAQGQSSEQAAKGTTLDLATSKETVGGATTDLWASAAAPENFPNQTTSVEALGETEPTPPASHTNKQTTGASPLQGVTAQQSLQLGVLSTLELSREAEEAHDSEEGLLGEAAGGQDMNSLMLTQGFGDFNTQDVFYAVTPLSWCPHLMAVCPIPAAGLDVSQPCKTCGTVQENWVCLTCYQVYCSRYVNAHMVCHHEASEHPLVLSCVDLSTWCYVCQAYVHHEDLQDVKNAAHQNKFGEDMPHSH

| IC50 [nM] | SMILES |
| --- | --- |
| > 100000 | O=C1N[C@@H]2CCCCCCCCCCC[C@H](NC2=O)C(=O)N2CCC[C@@H]2C(=O)N[C@H]1CCCCCB(O)O |
| 280 | O=C(CCCCC[C@@H]1NC(=O)[C@H]2CCCN2C(=O)[C@@H]2CCCCCCCCCCC[C@@H](NC1=O)C(=O)N2)NO |
| > 100000 | COCC(=O)CCCCC[C@@H]1NC(=O)[C@H]2CCCN2C(=O)[C@@H]2CCCCCCCCCCC[C@@H](NC1=O)C(=O)N2 |

What follows are molecules tested against T2, Protein deacetylase HDAC6 (Homo sapiens, UniProt Q9UBN7) (assay: Inhibition of HDAC6 (unknown origin)). Conditions: not given.
T2 sequence (Q9UBN7 whole entry): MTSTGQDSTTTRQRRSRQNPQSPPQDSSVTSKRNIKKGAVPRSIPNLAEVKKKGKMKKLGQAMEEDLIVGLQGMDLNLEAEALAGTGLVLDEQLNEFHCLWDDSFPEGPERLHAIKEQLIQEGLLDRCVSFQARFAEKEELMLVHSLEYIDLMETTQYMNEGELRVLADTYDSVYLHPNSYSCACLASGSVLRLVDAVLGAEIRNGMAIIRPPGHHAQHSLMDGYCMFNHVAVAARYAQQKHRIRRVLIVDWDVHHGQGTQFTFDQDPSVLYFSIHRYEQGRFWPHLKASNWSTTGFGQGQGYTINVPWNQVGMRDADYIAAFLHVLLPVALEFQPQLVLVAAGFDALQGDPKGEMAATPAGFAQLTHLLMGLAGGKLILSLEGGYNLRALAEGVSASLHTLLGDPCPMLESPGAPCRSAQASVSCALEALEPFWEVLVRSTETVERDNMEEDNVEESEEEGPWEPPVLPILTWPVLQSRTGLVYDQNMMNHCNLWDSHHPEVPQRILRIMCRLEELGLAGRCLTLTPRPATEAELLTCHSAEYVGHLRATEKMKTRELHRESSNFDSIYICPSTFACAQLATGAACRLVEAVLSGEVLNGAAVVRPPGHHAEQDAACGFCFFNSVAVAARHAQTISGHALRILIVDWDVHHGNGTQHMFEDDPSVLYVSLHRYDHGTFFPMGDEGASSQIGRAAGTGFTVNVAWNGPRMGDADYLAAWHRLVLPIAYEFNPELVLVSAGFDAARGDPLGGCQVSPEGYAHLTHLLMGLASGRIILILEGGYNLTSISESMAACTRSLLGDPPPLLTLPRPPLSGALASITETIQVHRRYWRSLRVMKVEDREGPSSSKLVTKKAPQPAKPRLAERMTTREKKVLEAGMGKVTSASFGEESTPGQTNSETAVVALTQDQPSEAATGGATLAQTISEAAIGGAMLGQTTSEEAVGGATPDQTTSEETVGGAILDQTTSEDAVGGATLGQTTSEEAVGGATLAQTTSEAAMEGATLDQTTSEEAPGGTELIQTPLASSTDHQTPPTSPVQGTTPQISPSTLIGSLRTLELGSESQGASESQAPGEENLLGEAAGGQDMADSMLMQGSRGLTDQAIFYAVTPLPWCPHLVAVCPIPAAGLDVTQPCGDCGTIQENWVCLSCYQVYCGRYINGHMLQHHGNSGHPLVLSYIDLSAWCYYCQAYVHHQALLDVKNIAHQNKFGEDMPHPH

| SMILES | IC50 [nM] |
| --- | --- |
| CC(=O)SCCCCCC(NC(=O)OCc1ccccc1)C(=O)Nc1cccc2cccnc12 (stereo unspecified) | 34 |
| O=C(NC(CCCCCSSCCO)C(=O)Nc1cccc2cccnc12)OCc1ccccc1 (stereo unspecified) | 3.2 |

Next, values leading:

| IC50 [nM] | SMILES |
| --- | --- |
| 29 | COCCOCC(=O)SCCCCCC(NC(=O)OCc1ccccc1)C(=O)Nc1cccc2cccnc12 (stereo unspecified) |
| 7.5 | O=C(NC(CCCCCSSCCCCCC(NC(=O)OCc1ccccc1)C(=O)Nc1cccc2cccnc12)C(=O)Nc1cccc2cccnc12)OCc1ccccc1 (stereo unspecified) |

What follows are molecules tested against T3, Histone deacetylase 1 (Homo sapiens, UniProt Q13547) (assay: Inhibition of recombinant human GST-tagged HDAC1 expressed in baculovirus infected Sf9 insect cells Fluor-de-lys as substrate measured after 2 hrs by fluorescence assay). Conditions: not given.
T3 sequence (Q13547 whole entry): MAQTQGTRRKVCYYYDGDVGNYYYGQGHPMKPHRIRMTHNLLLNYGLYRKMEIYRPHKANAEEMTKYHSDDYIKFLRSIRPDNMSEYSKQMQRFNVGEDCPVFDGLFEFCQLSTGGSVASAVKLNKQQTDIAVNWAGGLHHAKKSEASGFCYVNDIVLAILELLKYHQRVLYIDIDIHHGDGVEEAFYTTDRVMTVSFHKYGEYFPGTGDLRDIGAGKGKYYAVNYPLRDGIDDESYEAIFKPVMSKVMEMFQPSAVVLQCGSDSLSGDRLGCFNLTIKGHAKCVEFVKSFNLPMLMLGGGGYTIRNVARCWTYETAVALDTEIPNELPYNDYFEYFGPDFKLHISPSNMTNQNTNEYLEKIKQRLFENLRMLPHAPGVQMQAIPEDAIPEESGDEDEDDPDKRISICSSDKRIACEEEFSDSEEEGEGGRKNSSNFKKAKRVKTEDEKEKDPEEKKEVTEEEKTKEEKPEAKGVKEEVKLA

| SMILES | IC50 [nM] |
| --- | --- |
| CCCCc1nc2cc(/C=C/C(=O)NO)ccn2c1CN(CC)CCCC | 60 |
| CN(Cc1c(C(C)(C)C)nc2cc(/C=C/C(=O)NO)ccn12)CC(C)(C)C | 780 |

Second part, the molecule after the results:

| IC50 [nM] | SMILES |
| --- | --- |
| 20 | CCCCNCc1c(CCCC)nc2cc(/C=C/C(=O)NO)ccn12 |
| 10 | CCC(CC)CN(CC)Cc1c(C)nc2cc(/C=C/C(=O)NO)ccn12 |

These molecules were tested against T3, Histone deacetylase 1 (assay: Inhibition of HDAC1 (unknown origin)). Conditions: not given.

| SMILES | IC50 [nM] |
| --- | --- |
| CC(=O)SCCCCCC(NC(=O)OCc1ccccc1)C(=O)Nc1cccc2cccnc12 (stereo unspecified) | 47 |
| O=C(NC(CCCCCSSCCO)C(=O)Nc1cccc2cccnc12)OCc1ccccc1 (stereo unspecified) | 4.9 |

Next, values leading:

| IC50 [nM] | SMILES |
| --- | --- |
| 19 | COCCOCC(=O)SCCCCCC(NC(=O)OCc1ccccc1)C(=O)Nc1cccc2cccnc12 (stereo unspecified) |
| 8.2 | O=C(NC(CCCCCSSCCCCCC(NC(=O)OCc1ccccc1)C(=O)Nc1cccc2cccnc12)C(=O)Nc1cccc2cccnc12)OCc1ccccc1 (stereo unspecified) |

The molecules below were run against T4, Histone deacetylase 4 (Homo sapiens, UniProt P56524) (assay: Inhibition of HDAC4 (unknown origin)). Conditions: not given.
T4 sequence (P56524 whole entry): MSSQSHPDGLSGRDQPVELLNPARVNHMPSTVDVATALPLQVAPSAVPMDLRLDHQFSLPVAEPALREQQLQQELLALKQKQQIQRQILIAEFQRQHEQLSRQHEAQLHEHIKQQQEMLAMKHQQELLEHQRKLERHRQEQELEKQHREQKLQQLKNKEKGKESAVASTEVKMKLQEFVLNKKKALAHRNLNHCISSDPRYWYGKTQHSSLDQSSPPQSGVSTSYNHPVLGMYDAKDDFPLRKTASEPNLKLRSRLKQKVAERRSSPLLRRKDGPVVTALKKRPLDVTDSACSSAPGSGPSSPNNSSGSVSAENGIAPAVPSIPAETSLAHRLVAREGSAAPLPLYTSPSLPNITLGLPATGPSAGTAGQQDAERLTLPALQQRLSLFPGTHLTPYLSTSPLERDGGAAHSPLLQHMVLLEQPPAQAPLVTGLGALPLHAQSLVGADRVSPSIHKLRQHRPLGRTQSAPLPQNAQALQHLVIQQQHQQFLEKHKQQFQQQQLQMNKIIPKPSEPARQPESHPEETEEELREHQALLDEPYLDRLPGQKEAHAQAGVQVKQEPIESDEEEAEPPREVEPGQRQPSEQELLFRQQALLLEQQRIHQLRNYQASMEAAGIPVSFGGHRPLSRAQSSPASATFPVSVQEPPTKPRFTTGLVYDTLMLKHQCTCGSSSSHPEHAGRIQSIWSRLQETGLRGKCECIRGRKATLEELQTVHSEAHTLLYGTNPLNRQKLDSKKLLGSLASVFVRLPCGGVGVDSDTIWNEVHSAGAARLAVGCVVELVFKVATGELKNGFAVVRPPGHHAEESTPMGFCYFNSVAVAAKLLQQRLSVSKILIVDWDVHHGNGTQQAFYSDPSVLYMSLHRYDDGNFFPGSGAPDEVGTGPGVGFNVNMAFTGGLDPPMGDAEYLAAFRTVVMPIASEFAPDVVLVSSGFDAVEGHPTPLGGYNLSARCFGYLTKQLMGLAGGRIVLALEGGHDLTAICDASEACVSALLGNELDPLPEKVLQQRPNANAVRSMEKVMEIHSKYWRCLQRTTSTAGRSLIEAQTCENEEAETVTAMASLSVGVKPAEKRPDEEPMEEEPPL

| SMILES | IC50 [nM] |
| --- | --- |
| CC(=O)SCCCCCC(NC(=O)OCc1ccccc1)C(=O)Nc1cccc2cccnc12 (stereo unspecified) | 18 |
| O=C(NC(CCCCCSSCCO)C(=O)Nc1cccc2cccnc12)OCc1ccccc1 (stereo unspecified) | 2 |

Continued, values first:

| IC50 [nM] | SMILES |
| --- | --- |
| 18 | COCCOCC(=O)SCCCCCC(NC(=O)OCc1ccccc1)C(=O)Nc1cccc2cccnc12 (stereo unspecified) |
| 3.4 | O=C(NC(CCCCCSSCCCCCC(NC(=O)OCc1ccccc1)C(=O)Nc1cccc2cccnc12)C(=O)Nc1cccc2cccnc12)OCc1ccccc1 (stereo unspecified) |

These molecules were tested against T3, Histone deacetylase 1 (assay: Inhibition of recombinant human HDAC1 expressed in HEK293T cells using Ac-KGLGK(Ac)-MCA as substrate measured after 30 mins by fluorescence assay). Conditions: not given.

| IC50 [nM] | SMILES |
| --- | --- |
| 12000 | O=C1N[C@@H]2CCCCCCCCCCC[C@H](NC2=O)C(=O)N2CCC[C@@H]2C(=O)N[C@H]1CCCCCB(O)O |
| 27 | COCC(=O)CCCCC[C@@H]1NC(=O)[C@H]2CCCN2C(=O)[C@@H]2CCCCCCCCCCC[C@@H](NC1=O)C(=O)N2 |

These molecules were tested against T4, Histone deacetylase 4 (assay: Inhibition of recombinant human HDAC4 expressed in HEK293T cells using Ac-KGLGK(Ac)-MCA as substrate measured after 30 mins by fluorescence assay). Conditions: not given.

| IC50 [nM] | SMILES |
| --- | --- |
| 9400 | O=C1N[C@@H]2CCCCCCCCCCC[C@H](NC2=O)C(=O)N2CCC[C@@H]2C(=O)N[C@H]1CCCCCB(O)O |
| 26 | COCC(=O)CCCCC[C@@H]1NC(=O)[C@H]2CCCN2C(=O)[C@@H]2CCCCCCCCCCC[C@@H](NC1=O)C(=O)N2 |

From ChEMBL document CHEMBL4422610, “HDAC as onco target: Reviewing the synthetic approaches with SAR study of their inhibitors” (Eur J Med Chem, 2018)
